Test: recombinant UMI read abundance after kanamycin selection (control-corrected) (log10(CPM+1)); higher = more efficient recombination; extreme values may be limits of the assay; sequences stand for … in AGTGCAGAGAAAATCGGCCAGTTTTCTCTGCCTGCAGTCCGCATGCCGTGGGACCCCTTGGGTTCTAACCTGTTGCCTAGATTTATGCAGCGGACTGCCTTTCTCCCAAAGTGATAAACCGG…AGGTTGGTTTCACT; site = the 11-nt donor
In short: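 Values, expressed as log10(CPM+1), derive from recombinant UMI counts converted to CPM, averaged across replicates and scaled by control-derived factors. Plating was with IPTG (0.07 mM) plus kanamycin or unselected, two replicates each. The screen pooled donor and donor-binding-loop pairs for the IS621 bridge recombinase in Escherichia coli.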
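Also: IS621 bridge recombinase in Escherichia coli cells against a fixed T5 target plasmid.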

## CCGCGCACATGGACCGGTTTTCCCGGTAATCCGTATTTGTT (site CCGCGCACTAA)
  recombinant UMI read abundance (log10): 0.0199

## CCGCGTACATGGACCGGTTTTCCCGGTAATCCGTATTTGTT (site CCGCGTACTAA)
  recombinant UMI read abundance (log10): 0.0381

## CCGGAAACATGGACCGGTTTTCCCGGTAATCCGTATTTGCA (site CAGGAAACTTG)
  recombinant UMI read abundance (log10): 0

## CCGGAAACATGGACCGGTTTTCCCGGTAATCCGTATTTGCA (site CCGGAAACTTG)
  recombinant UMI read abundance (log10): 0.135

## CCGGAAACATGGACCGGTTTTCCCGGTAATCCGTATTTGCA (site CGGGAAACTTG)
  recombinant UMI read abundance (log10): 0

## CCGGAAACATGGACCGGTTTTCCCGGTAATCCGTATTTGCA (site CTGGAAACTTG)
  recombinant UMI read abundance (log10): 0

## CCGGAGTCATGGACCGGTTTTCCCGGTAATCCGTATTTGCC (site CAGGAGTCTGG)
  recombinant UMI read abundance (log10): 0

## CCGGAGTCATGGACCGGTTTTCCCGGTAATCCGTATTTGCC (site CCGGAGTCTGG)
  recombinant UMI read abundance (log10): 1.55

## CCGGAGTCATGGACCGGTTTTCCCGGTAATCCGTATTTGCC (site CGGGAGTCTGG)
  recombinant UMI read abundance (log10): 0

## CCGGAGTCATGGACCGGTTTTCCCGGTAATCCGTATTTGCC (site CTGGAGTCTGG)
  recombinant UMI read abundance (log10): 0

## CCGGCAGCATGGACCGGTTTTCCCGGTAATCCGTATTTGCA (site CCGGCAGCTTG)
  recombinant UMI read abundance (log10): 0.255

## CCGGCAGCATGGACCGGTTTTCCCGGTAATCCGTATTTGTA (site CCGGCAGCTTA)
  recombinant UMI read abundance (log10): 0.665

## CCGGTACCATGGACCGGTTTTCCCGGTAATCCGTATTTGAG (site CCGGTACCTCT)
  recombinant UMI read abundance (log10): 0

## CCGGTAGCATGGACCGGTTTTCCCGGTAATCCGTATTTGTG (site CCGATAGCTCA)
  recombinant UMI read abundance (log10): 0

## CCGGTAGCATGGACCGGTTTTCCCGGTAATCCGTATTTGTG (site CCGCTAGCTCA)
  recombinant UMI read abundance (log10): 0.0271

## CCGGTAGCATGGACCGGTTTTCCCGGTAATCCGTATTTGTG (site CCGGTAGCTCA)
  recombinant UMI read abundance (log10): 0.303

## CCGGTAGCATGGACCGGTTTTCCCGGTAATCCGTATTTGTG (site CCGTTAGCTCA)
  recombinant UMI read abundance (log10): 0.0101

## CCGGTCCCATGGACCGGTTTTCCCGGTAATCCGTATTTGTC (site CCGGTCCCTGA)
  recombinant UMI read abundance (log10): 0

## CCGGTTACATGGACCGGTTTTCCCGGTAATCCGTATTTGCT (site CCGATTACTAG)
  recombinant UMI read abundance (log10): 0.782

## CCGGTTACATGGACCGGTTTTCCCGGTAATCCGTATTTGCT (site CCGCTTACTAG)
  recombinant UMI read abundance (log10): 0

## CCGGTTACATGGACCGGTTTTCCCGGTAATCCGTATTTGCT (site CCGGTTACTAG)
  recombinant UMI read abundance (log10): 0

## CCGGTTACATGGACCGGTTTTCCCGGTAATCCGTATTTGCT (site CCGTTTACTAG)
  recombinant UMI read abundance (log10): 0

## CCGTAAGCATGGACCGGTTTTCCCGGTAATCCGTATTTGTG (site CCGTAAGCTCA)
  recombinant UMI read abundance (log10): 0.404

## CCGTAAGCATGGACCGGTTTTCCCGGTAATCCGTATTTGTG (site CCGTCAGCTCA)
  recombinant UMI read abundance (log10): 0.0145

## CCGTAAGCATGGACCGGTTTTCCCGGTAATCCGTATTTGTG (site CCGTGAGCTCA)
  recombinant UMI read abundance (log10): 0.011

## CCGTAAGCATGGACCGGTTTTCCCGGTAATCCGTATTTGTG (site CCGTTAGCTCA)
  recombinant UMI read abundance (log10): 0.0113

## CCGTAGTCATGGACCGGTTTTCCCGGTAATCCGTATTTGGG (site CCGTAGTCTCC)
  recombinant UMI read abundance (log10): 0.0263

## CCGTCTACATGGACCGGTTTTCCCGGTAATCCGTATTTGCT (site CCGTATACTAG)
  recombinant UMI read abundance (log10): 0

## CCGTCTACATGGACCGGTTTTCCCGGTAATCCGTATTTGCT (site CCGTCTACTAG)
  recombinant UMI read abundance (log10): 0.223

## CCGTCTACATGGACCGGTTTTCCCGGTAATCCGTATTTGCT (site CCGTGTACTAG)
  recombinant UMI read abundance (log10): 0

## CCGTCTACATGGACCGGTTTTCCCGGTAATCCGTATTTGCT (site CCGTTTACTAG)
  recombinant UMI read abundance (log10): 0

## CCGTTACCATGGACCGGTTTTCCCGGTAATCCGTATTTGTG (site CCGTTAACTCA)
  recombinant UMI read abundance (log10): 0.00404

## CCGTTACCATGGACCGGTTTTCCCGGTAATCCGTATTTGTG (site CCGTTACCTCA)
  recombinant UMI read abundance (log10): 0.0136

## CCGTTACCATGGACCGGTTTTCCCGGTAATCCGTATTTGTG (site CCGTTAGCTCA)
  recombinant UMI read abundance (log10): 0.0116

## CCGTTACCATGGACCGGTTTTCCCGGTAATCCGTATTTGTG (site CCGTTATCTCA)
  recombinant UMI read abundance (log10): 0

## CCGTTAGCATGGACCGGTTTTCCCGGTAATCCGTATTTGCG (site CCGTTAGCTCA)
  recombinant UMI read abundance (log10): 0

## CCGTTAGCATGGACCGGTTTTCCCGGTAATCCGTATTTGCG (site CCGTTAGCTCC)
  recombinant UMI read abundance (log10): 0

## CCGTTAGCATGGACCGGTTTTCCCGGTAATCCGTATTTGCG (site CCGTTAGCTCG)
  recombinant UMI read abundance (log10): 0.184

## CCGTTAGCATGGACCGGTTTTCCCGGTAATCCGTATTTGCG (site CCGTTAGCTCT)
  recombinant UMI read abundance (log10): 0.0063

## CCGTTCACATGGACCGGTTTTCCCGGTAATCCGTATTTGCT (site CCGTTAACTAG)
  recombinant UMI read abundance (log10): 0

## CCGTTCACATGGACCGGTTTTCCCGGTAATCCGTATTTGCT (site CCGTTCACTAG)
  recombinant UMI read abundance (log10): 0.726

## CCGTTCACATGGACCGGTTTTCCCGGTAATCCGTATTTGCT (site CCGTTGACTAG)
  recombinant UMI read abundance (log10): 0

## CCGTTCACATGGACCGGTTTTCCCGGTAATCCGTATTTGCT (site CCGTTTACTAG)
  recombinant UMI read abundance (log10): 0

## CCGTTTACATGGACCGGTTTTCCCGGTAATCCGTATTTGCA (site CCGTTTACTAG)
  recombinant UMI read abundance (log10): 0

## CCGTTTACATGGACCGGTTTTCCCGGTAATCCGTATTTGCA (site CCGTTTACTCG)
  recombinant UMI read abundance (log10): 0

## CCGTTTACATGGACCGGTTTTCCCGGTAATCCGTATTTGCA (site CCGTTTACTGG)
  recombinant UMI read abundance (log10): 0

## CCGTTTACATGGACCGGTTTTCCCGGTAATCCGTATTTGCA (site CCGTTTACTTG)
  recombinant UMI read abundance (log10): 0

## CCGTTTACATGGACCGGTTTTCCCGGTAATCCGTATTTGCG (site CCGTTTACTAG)
  recombinant UMI read abundance (log10): 0

## CCGTTTACATGGACCGGTTTTCCCGGTAATCCGTATTTGCG (site CCGTTTACTCG)
  recombinant UMI read abundance (log10): 0.0437

## CCGTTTACATGGACCGGTTTTCCCGGTAATCCGTATTTGCG (site CCGTTTACTGG)
  recombinant UMI read abundance (log10): 0

## CCGTTTACATGGACCGGTTTTCCCGGTAATCCGTATTTGCG (site CCGTTTACTTG)
  recombinant UMI read abundance (log10): 0

## CCGTTTGCATGGACCGGTTTTCCCGGTAATCCGTATTTGTG (site CCGTTAGCTCA)
  recombinant UMI read abundance (log10): 0.00545

## CCGTTTGCATGGACCGGTTTTCCCGGTAATCCGTATTTGTG (site CCGTTCGCTCA)
  recombinant UMI read abundance (log10): 0.0182

## CCGTTTGCATGGACCGGTTTTCCCGGTAATCCGTATTTGTG (site CCGTTGGCTCA)
  recombinant UMI read abundance (log10): 0.0153

## CCGTTTGCATGGACCGGTTTTCCCGGTAATCCGTATTTGTG (site CCGTTTGCTCA)
  recombinant UMI read abundance (log10): 0

## CCTAAAGCATGGACCGGTTTTCCCGGTAATCCGTATTTGAG (site CCTAAAGCTAT)
  recombinant UMI read abundance (log10): 0

## CCTAAAGCATGGACCGGTTTTCCCGGTAATCCGTATTTGAG (site CCTAAAGCTCT)
  recombinant UMI read abundance (log10): 0.599

## CCTAAAGCATGGACCGGTTTTCCCGGTAATCCGTATTTGAG (site CCTAAAGCTGT)
  recombinant UMI read abundance (log10): 0

## CCTAAAGCATGGACCGGTTTTCCCGGTAATCCGTATTTGAG (site CCTAAAGCTTT)
  recombinant UMI read abundance (log10): 0

## CCTAAAGCATGGACCGGTTTTCCCGGTAATCCGTATTTGCT (site CCTAAAGCTAA)
  recombinant UMI read abundance (log10): 0.00467

## CCTAAAGCATGGACCGGTTTTCCCGGTAATCCGTATTTGCT (site CCTAAAGCTAC)
  recombinant UMI read abundance (log10): 0

## CCTAAAGCATGGACCGGTTTTCCCGGTAATCCGTATTTGCT (site CCTAAAGCTAG)
  recombinant UMI read abundance (log10): 0

## CCTAAAGCATGGACCGGTTTTCCCGGTAATCCGTATTTGCT (site CCTAAAGCTAT)
  recombinant UMI read abundance (log10): 0

## CCTAAATCATGGACCGGTTTTCCCGGTAATCCGTATTTGCA (site CCTAAATCTTG)
  recombinant UMI read abundance (log10): 0

## CCTAAGTCATGGACCGGTTTTCCCGGTAATCCGTATTTGCA (site CCTAAGTCTTG)
  recombinant UMI read abundance (log10): 0

## CCTAATACATGGACCGGTTTTCCCGGTAATCCGTATTTGGT (site CCTAATACTAC)
  recombinant UMI read abundance (log10): 0

## CCTAATACATGGACCGGTTTTCCCGGTAATCCGTATTTGGT (site CCTAATACTCC)
  recombinant UMI read abundance (log10): 0.0104

## CCTAATACATGGACCGGTTTTCCCGGTAATCCGTATTTGGT (site CCTAATACTGC)
  recombinant UMI read abundance (log10): 0

## CCTAATACATGGACCGGTTTTCCCGGTAATCCGTATTTGGT (site CCTAATACTTC)
  recombinant UMI read abundance (log10): 0

## CCTAATACATGGACCGGTTTTCCCGGTAATCCGTATTTGTC (site CCTAATACTGA)
  recombinant UMI read abundance (log10): 0

## CCTAATACATGGACCGGTTTTCCCGGTAATCCGTATTTGTC (site CCTAATACTGC)
  recombinant UMI read abundance (log10): 0

## CCTAATACATGGACCGGTTTTCCCGGTAATCCGTATTTGTC (site CCTAATACTGG)
  recombinant UMI read abundance (log10): 0

## CCTAATACATGGACCGGTTTTCCCGGTAATCCGTATTTGTC (site CCTAATACTGT)
  recombinant UMI read abundance (log10): 0

## CCTAATGCATGGACCGGTTTTCCCGGTAATCCGTATTTGGC (site CCTAATACTGC)
  recombinant UMI read abundance (log10): 0

## CCTAATGCATGGACCGGTTTTCCCGGTAATCCGTATTTGGC (site CCTAATCCTGC)
  recombinant UMI read abundance (log10): 0

Reference: the supplement of paper PMC11208160
